# Molecular target: T1, Human recombinant sPLA2-V (Homo sapiens, UniProt P39877)
# T1 sequence (P39877 21-138): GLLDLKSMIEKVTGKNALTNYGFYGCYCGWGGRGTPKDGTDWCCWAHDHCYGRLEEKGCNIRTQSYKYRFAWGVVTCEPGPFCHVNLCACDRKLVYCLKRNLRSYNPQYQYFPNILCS
# Experiment: sPLA2-V activity assay
smiles,measurement,value
C[C@@H]1C[C@H]2[C@@H]3CCC4=CC(=O)C=C[C@]4(C)[C@@]3(F)[C@@H](O)C[C@]2(C)[C@@]1(O)C(=O)CO [Dexamethasone],IC50,650 ± 150 nM
